Test results from patent US7713969B2, “Compositions and methods for treatment of cancer” (ArQule, Inc., priority 2005, dated 2010).

Key:
[1] = tested on: MDA-MB-231 cells or Paca-2 cells; assay: Cell survival in six-well plates, Wright-Giemsa stain (Example 77); type: cell-based; conditions: Homo sapiens; 0.1-2 μM, cultures observed 10-15 days; cell line of the IC50 not stated
Procedure: Exponentially growing MDA-MB-231 cells or Paca-2 cells were seeded at 1,000 cells per well in six-well plates and allowed to attach for 24 hours. MDA-MB-231 and Paca-2 cells were cultured in DMEM supplemented with 10% (v/v) fetal calf serum (FCS) and 5 ml Penicillin/Streptomycin at 37° C. in 5% CO2. MDA-MB-231 and Paca-2 were established estrogen receptor negative human breast cancer and pancreatic carcinoma cell lines, respectively. (±)-cis-3-(5,6-dihydro-4H-pyrrolo[3,2,1-ij]quinolin-1yl)-4(1H-indol-3-yl)pyrrolidine-2,5-dione or (±)-trans-3-(5,6-dihydro-4H-pyrrolo[3,2,1-ij]quinolin-1-yl)-4(1H-indol-3-yl)pyrrolidine-2,5-dione were each dissolved at a concentration of 10 mM in DMSO, and separately added to cells at a concentration of 0.1, 0.25, 0.5, 1 or 2 μM. Control plates received DMSO alone, at the same percentage of total culture volume as that administered in conjunction with the highest concentration of drug. Cell cultures were observed daily for 10-15 days, then fixed and stained with modified Wright-Giemsa stain (Sigma). Treatment with (±)-cis-3-(5,6-dihydro-4H-pyrrolo [3,2,1-ij]quinolin-1yl)-4(1H-indol-3-yl)pyrrolidine-2,5-dione or (±)-trans-3-(5,6-dihydro-4H-pyrrolo[3,2,1-ij]quinolin-1-yl)-4(1H-indol-3-yl)pyrrolidine-2,5-dione results in cell death of MDA-MB-231 cells or Paca-2 cells. See, e.g., FIG. 2.

[2] = tested on: HT29 human colon cancer xenograft; assay: Colon cancer xenograft model (Example 87); type: in vivo, mice; conditions: for optimal tumor growth inhibition: daily 5 days on/2 off, 20 treatments
Procedure: In this human colon cancer xenograft model HT29 human colon cancer cells were inoculated subcutaneously into female athymic nude mice (5×10^6 cells/mouse) and allowed to form palpable tumors. Once the tumors reached approximately 60 mm^3, the animals were treated orally with either (−)-trans-3-(5,6-dihydro-4H-pyrrolo[3,2,1-ij]quinolin-1-yl)-4(1H-indol-3-yl)pyrrolidine-2,5-dione at 200 mg/kg or 300 mg/kg, or vehicle control daily (5 consecutive days, followed by a 2 day dosing holiday). (−)-trans-3-(5,6-dihydro-4H-pyrrolo[3,2,1-ij]quinolin-1-yl)-4(1H-indol-3-yl)pyrrolidine-2,5-dione was formulated in PEG 400:20% Vitamin E TPGS (60:40). The animals received a total of 20 treatments of either (−)-trans-3-(5,6-dihydro-4H-pyrrolo[3,2,1-ij]quinolin-1-yl)-4(1H-indol-3-yl) pyrrolidine-2,5-dione or vehicle control. Tumors were measured throughout treatment and the post-treatment observation period. Each point represents the mean±SEM of ten tumors. (See FIG. 11)

[3] = tested on: PACA-2 human pancreatic cancer xenograft; assay: Pancreatic cancer xenograft model (Example 88); type: in vivo, mice; conditions: for optimal tumor growth inhibition: daily 5 days on/2 off, 20 doses
Procedure: PACA-2 human pancreatic cancer cells were inoculated subcutaneously into female athymic nude mice (5×10^6 cells/mouse) and allowed to form palpable tumors. Once the tumors reached approximately 60 mm^3, the animals were treated orally with (−)-trans-3-(5,6-dihydro-4H-pyrrolo[3,2,1-ij]quinolin-1-yl)-4(1H-indol-3-yl) pyrrolidine-2,5-dione at 200 mg/kg or 300 mg/kg or vehicle control daily (5 consecutive days, followed by a 2 day dosing holiday). (−)-trans-3-(5,6-dihydro-4H-pyrrolo[3,2,1-ij]quinolin-1-yl)-4(1H-indol-3-yl)pyrrolidine-2,5-dione was formulated in PEG 400:20% Vitamin E TPGS (60:40). The animals received a total of 20 doses of (−)-trans-3-(5,6-dihydro-4H-pyrrolo[3,2,1-ij]quinolin-1-yl)-4(1H-indol-3-yl)pyrrolidine-2,5-dione or vehicle control. Tumors were measured throughout treatment and the post-treatment observation period. Each point represents the mean±SEM of ten tumors. (See FIG. 12)

Row | SMILES | IC50 [1] | change in body weight ([2]; 200 mg/kg or 300 mg/kg oral administration) | optimal tumor growth inhibition ([2]; 200 mg/kg orally) | optimal tumor growth inhibition ([2]; 300 mg/kg orally) | change in body weight ([3]; 200 mg/kg and 300 mg/kg oral administration) | optimal tumor growth inhibition ([3]; 200 mg/kg orally) | optimal tumor growth inhibition ([3]; 300 mg/kg orally)
1 | O=C1NC(=O)[C@@H](c2cn3c4c(cccc24)CCC3)[C@@H]1c1c[nH]c2ccccc12 (racemic) [(±)-Trans-3-(5,6-dihydro-4H-pyrrolo[3,2,1-ij]quinolin-1-yl)-4(1H-indol-3-yl)pyrrolidine-2,5-dione] | 500 nM | – | – | – | – | – | –
2 | O=C1NC(=O)C(c2cn3c4c(cccc24)CCC3)C1c1c[nH]c2ccccc12 (single isomer, unassigned; (-)) | – | no significant change in body weight | 39% | 55% | no significant change in body weight | 58% | 60%
